Results as given in patent publication US20110039763A1, “TARGETED ANTIMICROBIAL MOIETIES” (C3 JIAN, INC., priority 2009, published 2011).
“Also recorded” adds a separate entry of the source.

Key:
[1] = test system: microorganisms; experiment: Peptide activities: targeting/binding, antimicrobial, growth or phenotype altering (Tables 7, 8); assay type: cell-based; conditions: peptides having multiple activities
[2] = test system: microorganisms; experiment: Targeting peptide binding to target microorganisms (Tables 3, 10, 12); conditions: microorganism(s) the targeting peptide binds; binding in aqueous buffers varied with peptide solubility, preferably 1x PBS
[3] = test system: microorganisms; experiment: Morphology, biofilm and growth disrupting peptides (Table 5); assay type: cell-based; design: key: A: Peptide aggregates; B: Less hyphal formation; Clumps; Diffuse clumps and small polyps; F: Diffuse growth; H: Thin; I: Growth inhibition; Microcolony formation; Rippled; Small polyps; Thick; W: Halo formation on top, microlonies on bottom
Text: In certain embodiments peptides that induce alterations in phenotype or other biological activities can also be used as antimicrobial effector moieties.

Substance | Activities [1] | Target(s) [2] | Organism, effect ([3]; E. faecalis) | Organism, effect ([3]; MRSA) | Organism, effect ([3]; S. epidermidis) | Organism, effect ([3]; S. pneumoniae) | Organism, effect ([3]; C. jeikeium) | Organism, effect ([3]; B. subtilis) | Organism, effect ([3]; C. albicans) | Organism, effect ([3]; E. coli) | Organism, effect ([3]; M. luteus) | Organism, effect ([3]; P. mirabilis) | Organism, effect ([3]; S. mutans)
PF-664: peptide having multiple activities (chain 1 DQLCVEYPARVSTG; chain 2 DQLCVEYPARVSTG; Peptide with targeting and/or antimicrobial activity) | G B | M. smegmatis | E. faecalis (R) | MRSA (R) | S. epidermidis (M) | S. pneumoniae (M) | – | – | – | – | – | – | –
PF-681: peptide having multiple activities (TALTTVGVSGARLITYCVGVEDI; Peptide with targeting and/or antimicrobial activity) | G B | M. smegmatis | E. faecalis (R) | MRSA (M) | S. epidermidis (M) | S. pneumoniae (M) | C. jeikeium (R) | – | – | – | – | – | –
PF-686: peptide having multiple activities (LAVLMGYIGYRGWSGKRHINRQ; Peptide with targeting and/or antimicrobial activity) | G B | M. smegmatis | E. faecalis (R) | MRSA (M) | S. epidermidis (H) | S. pneumoniae (A) | – | B. subtilis (I) | C. albicans (B) | – | – | – | –
PF-737: peptide having multiple activities (KSSGSSASASSTAGGSSSK; Peptide with targeting and/or antimicrobial activity) | G B | S. epidermidis; also recorded: S. pneumoniae | – | – | – | S. pneumoniae (D) | – | – | – | – | – | – | –
PF-738: peptide having multiple activities (KSGATSAASGAKSGASS; Peptide with targeting and/or antimicrobial activity) | G B | S. epidermidis; also recorded: C. albicans; also recorded: C. jeikeium | – | MRSA (M) | – | – | – | – | – | – | – | – | –
PF-741: peptide having multiple activities (AKREDTVAAQIGANILNLIQ; Peptide with targeting and/or antimicrobial activity) | G B | S. epidermidis and M. luteus and P. mirabilis and P. aeruginosa and C. albicans and MRSA and S. pneumoniae and E. faecalis | – | MRSA (C) | S. epidermidis (C) | S. pneumoniae (D) | – | – | – | E. coli (C) | M. luteus (C) | P. mirabilis (C) | S. mutans (D)
PF-744: peptide having multiple activities (LGVGTFVGKVLIKNQQKQKSKKKAQ; Peptide with targeting and/or antimicrobial activity) | G B | S. epidermidis and M. luteus and E. coli and MRSA and S. pneumoniae and E. faecalis and C. jeikeium | – | – | – | S. pneumoniae (H) | – | – | – | – | – | – | –
